Results reported in US8318697B2, “Prophylactic and therapeutic treatment of infectious and other diseases with mono- and disaccharide-based compounds” (Corixa Corporation, priority 2000, dated 2012).
Values joined by “and” are separate entries in the source; they are usually repeats but may differ in a detail not shown here. Equal entries are not always repeated. Where two headings read alike, the source gives them in different places.

Legend:
human whole blood = assay type: cell-based; conditions: for cytokine stimulation in human whole blood cultures: overnight culture
[1] = system: Ogawa P. gingivalis LPS stimulated whole blood cells; assay: Inhibition of LPS-induced cytokines in whole blood; assay type: cell-based, human; conditions: 10, 5, 2.5 ug/mL
Text: Table 4 provides the maximum levels of IL-4, IL-2 and IL-5 obtained, as well as ratios of TNF to IL-10, and ratios of IL-10 to TNF. Inhibition data for IL-8, reported as a percentage, are also provided on the right hand side of Table 4. For example, 90% inhibition would calculate to a 90% reduction of cytokine levels. MIP-1β results were similar. […]

[2] = system: L. monocytogenes 10403 serotype; assay: Murine Listeria monocytogenes challenge model; assay type: in vivo, Mice; conditions: 1 μg intravenously in 0.2% TEOA, challenge two days later; FIGS. 14-17
Method: This example provides experiments evaluating the induction of non-specific resistance in the murine Listeria monocytogenes challenge model performed using various AGPs and MPL. Mice (5 per group) were treated intravenously with the 1 μg of an AGP or MPL solubilized in 0.2% TEOA. Two days later the mice were challenged intravenously with a ˜10^5 L. monocytogenes 10403 serotype (provided by M. L. Gray, Montana State University, Bozeman, Mont.). Two days after the challenge, the mice were sacrificed and the number of colony forming units (CFUs) in the spleens of individual mice were determined by plating 10-fold serial dilutions of splenic homogenates on tryptic soy agar plates. The degree of protection afforded by a given AGP or MPL was calculated by subtracting the average number of bacteria per spleen (log 10 value) in the group of mice treated with a given compound, from the average number of bacteria per spleen (log 10 value) in a control group that was “sham” treated with vehicle (0.2% TEOA) prior to challenge with L. monocytogenes.

Row | Structure (SMILES) | TNFα/IL10 cba (human whole blood; donor 2, ratio of TNF to IL-10) | % inhib. LPS IL-8 [1] | protection against L. monocytogenes challenge (reduction of log 10 bacteria per spleen vs vehicle) [2] | cytokine stimulation in human whole blood cultures (human whole blood) | further results
1 | CCCCCCCCCCCCCC(=O)O[C@H](CCCCCCCCCCC)CC(=O)N[C@H]1[C@H](OC[C@H](NC(=O)C[C@@H](CCCCCCCCCCC)OC(=O)CCCCCCCCCCCCC)C(=O)O)O[C@H](CO)[C@@H](OP(=O)(O)O)[C@@H]1OC(=O)C[C@@H](CCCCCCCCCCC)OC(=O)CCCCCCCCCCCCC.CCN(CC)CC [RC-512] | 3.9 | −1% | – | – | IL-1β cba2 (human whole blood; donor 1): 3230; IL10/TNFα cba (human whole blood; donor 2, ratio of IL-10 to TNF): 0.4
2 | CCCCCCCCCCC[C@H](CC(=O)N[C@H]1[C@H](OC[C@H](NC(=O)C[C@@H](CCCCCCCCCCC)OC(=O)CCCCCCCCC)C(N)=O)O[C@H](CO)[C@@H](OP(=O)(O)O)[C@@H]1OC(=O)C[C@@H](CCCCCCCCCCC)OC(=O)CCCCCCCCC)OC(=O)CCCCCCCCC.CCN(CC)CC [RC-522] | – | – | protection that was equal to or greater than that provided by MPL | – | IL10/TNFα cba (human whole blood; donor 1, ratio of IL-10 to TNF): 2.7; TNFα/IL10 cba (human whole blood; donor 1, ratio of TNF to IL-10): 0.4
3 | CCCCCCCCCCC[C@H](CC(=O)NCCO[C@@H]1O[C@H](CO)[C@@H](OP(=O)(O)O)[C@H](OC(=O)C[C@@H](CCCCCCCCCCC)OC(=O)CCCCCCCCC)[C@H]1NC(=O)C[C@@H](CCCCCCCCCCC)OC(=O)CCCCCCCCC)OC(=O)CCCCCCCCC.CCN(CC)CC [RC-524] | 0.3 | – | protection that was equal to or greater than that provided by MPL | – | IL10/TNFα cba (human whole blood; donor 1, ratio of IL-10 to TNF): 1.8; TNFα/IL10 cba (human whole blood; donor 1, ratio of TNF to IL-10): 0.2; IL10/TNFα cba (human whole blood; donor 2, ratio of IL-10 to TNF): 4
4 | CCCCCCCCCCCCCC(=O)O[C@H](CCCCCCCCCCC)CC(=O)NCCCO[C@@H]1O[C@H](CO)[C@@H](OP(=O)(O)O)[C@H](OC(=O)C[C@@H](CCCCCCCCCCC)OC(=O)CCCCCCCCCCCCC)[C@H]1NC(=O)C[C@@H](CCCCCCCCCCC)OC(=O)CCCCCCCCCCCCC.CCN(CC)CC [RC-525] | 1.2 | – | – | – | IL10/TNFα cba (human whole blood; donor 1, ratio of IL-10 to TNF): 3.7; TNFα/IL10 cba (human whole blood; donor 1, ratio of TNF to IL-10): 1.8; IL10/TNFα cba (human whole blood; donor 2, ratio of IL-10 to TNF): 0.7
5 | CCCCCCCCCCC[C@H](CC(=O)N[C@H]1[C@H](OC[C@H](NC(=O)C[C@@H](CCCCCCCCCCC)OC(=O)CCCCCCCC)C(=O)O)O[C@H](CO)[C@@H](OP(=O)(O)O)[C@@H]1OC(=O)C[C@@H](CCCCCCCCCCC)OC(=O)CCCCCCCC)OC(=O)CCCCCCCC.CCN(CC)CC [RC-537] | – | 33% | – | – | IL-1β cba2 (human whole blood): 8353
6 | CCCCCCCCCCC[C@H](CC(=O)N[C@H]1[C@H](OC[C@H](NC(=O)C[C@@H](CCCCCCCCCCC)OC(=O)CCCCCCCCCC)C(=O)O)O[C@H](CO)[C@@H](OP(=O)(O)O)[C@@H]1OC(=O)C[C@@H](CCCCCCCCCCC)OC(=O)CCCCCCCCCC)OC(=O)CCCCCCCCCC.CCN(CC)CC [RC-538] | – | −3% | – | – | IL10/TNFα cba (human whole blood): 0.5 and 0.3; IL-1β cba2 (human whole blood): 7767; TNFα/IL10 cba (human whole blood): 2.3 and 4
7 | CCCCCCCCCCC[C@H](CC(=O)N[C@@H](CCO)CO[C@@H]1O[C@H](CO)[C@@H](OP(=O)(O)O)[C@H](OC(=O)C[C@@H](CCCCCCCCCCC)OC(=O)CCCCCCCCC)[C@H]1NC(=O)C[C@@H](CCCCCCCCCCC)OC(=O)CCCCCCCCC)OC(=O)CCCCCCCCC.CCN(CC)CC [RC-541] | – | – | protection that was equal to or greater than that provided by MPL | – | –
8 | CCCCCCCCCCC[C@H](CC(=O)N[C@@H](CO)CO[C@@H]1O[C@H](CO)[C@@H](OP(=O)(O)O)[C@H](OC(=O)C[C@@H](CCCCCCCCCCC)OC(=O)CCCCCCCCC)[C@H]1NC(=O)C[C@@H](CCCCCCCCCCC)OC(=O)CCCCCCCCC)OC(=O)CCCCCCCCC.CCN(CC)CC [RC-545] | – | – | protection that was equal to or greater than that provided by MPL | – | –
9 | CCCCCCCCCCC[C@H](CC(=O)N[C@H]1[C@H](OC[C@@H](NC(=O)C[C@@H](CCCCCCCCCCC)OC(=O)CCCCCCCCC)C(=O)O)O[C@H](CO)[C@@H](OP(=O)(O)O)[C@@H]1OC(=O)C[C@@H](CCCCCCCCCCC)OC(=O)CCCCCCCCC)OC(=O)CCCCCCCCC.CCN(CC)CC [RC-547] | – | – | protection that was equal to or greater than that provided by MPL | – | –
10 | CCCCCCCCCCC[C@H](CC(=O)N[C@H]1[C@H](OC[C@H](NC(=O)C[C@@H](CCCCCCCCCCC)OC(=O)CCCCCC)C(=O)O)O[C@H](CO)[C@@H](OP(=O)(O)O)[C@@H]1OC(=O)C[C@@H](CCCCCCCCCCC)OC(=O)CCCCCC)OC(=O)CCCCCC.CCN(CC)CC [RC-554] | 0.9 | 100% | – | little if any cytokine stimulation | IL-1β cba2 (human whole blood; donor 1): 545; IL10/TNFα cba (human whole blood; donor 2, ratio of IL-10 to TNF): 1.1
11 | CCCCCCCCCCC[C@H](CC(=O)N[C@H]1[C@H](OC[C@H](NC(=O)C[C@@H](CCCCCCCCCCC)OC(=O)CCCCCCC)C(=O)O)O[C@H](CO)[C@@H](OP(=O)(O)O)[C@@H]1OC(=O)C[C@@H](CCCCCCCCCCC)OC(=O)CCCCCCC)OC(=O)CCCCCCC.CCN(CC)CC [RC-555] | 0.8 | 99% | – | little if any cytokine stimulation | IL-1β cba2 (human whole blood; donor 1): 519; IL10/TNFα cba (human whole blood; donor 2, ratio of IL-10 to TNF): 1.2
12 | CCCCCCCCCCCCCC(=O)O[C@H](CCCCCCCCCCC)CC(=O)NCCCCO[C@@H]1O[C@H](CO)[C@@H](OP(=O)(O)O)[C@H](OC(=O)C[C@@H](CCCCCCCCCCC)OC(=O)CCCCCCCCCCCCC)[C@H]1NC(=O)C[C@@H](CCCCCCCCCCC)OC(=O)CCCCCCCCCCCCC.CCN(CC)CC [RC-557] | 0.5 | – | – | – | IL10/TNFα cba (human whole blood; donor 1, ratio of IL-10 to TNF): 0.6; TNFα/IL10 cba (human whole blood; donor 1, ratio of TNF to IL-10): 0.6
13 | CCCCCCCCCCC[C@H](CC(=O)N[C@H]1[C@H](OCCCN(CC(=O)O)C(=O)C[C@@H](CCCCCCCCCCC)OC(=O)CCCCCCCCC)O[C@H](CO)[C@@H](OP(=O)(O)O)[C@@H]1OC(=O)C[C@@H](CCCCCCCCCCC)OC(=O)CCCCCCCCC)OC(=O)CCCCCCCCC.CCN(CC)CC [RC-558] | – | – | protection that was equal to or greater than that provided by MPL | – | –
14 | CCCCCCCCCCCC(=O)O[C@H](CCCCCCCCCCC)CC(=O)N[C@H]1[C@H](OC[C@H](NC(=O)C[C@@H](CCCCCCCCCCC)OC(=O)CCCCCCCCCCC)C(=O)O)O[C@H](CO)[C@@H](OP(=O)(O)O)[C@@H]1OC(=O)C[C@@H](CCCCCCCCCCC)OC(=O)CCCCCCCCCCC.CCN(CC)CC [RC-560] | – | −1% | – | – | IL-1β cba2 (human whole blood): 5833
15 | CCCCCCCCCCC[C@H](CC(=O)N[C@H]1[C@H](OC[C@H](NC(=O)C[C@@H](CCCCCCCCCCC)OC(=O)CCCCCCCCC)C(=O)O)O[C@H](CO)[C@@H](OP(=O)(O)O)[C@@H]1OC(=O)C[C@@H](CCCCCCCCCCC)OC(=O)CCCCC)OC(=O)CCCCCCCCC.CCN(CC)CC [RC-566] | – | 93% | – | little if any cytokine stimulation | –
16 | CCCCCCCCCCC[C@H](CC(=O)N[C@H]1[C@H](OC[C@H](NC(=O)C[C@@H](CCCCCCCCCCC)OC(=O)CCCCCCCCC)C(=O)O)O[C@H](CO)[C@@H](OP(=O)(O)O)[C@@H]1OC(=O)C[C@@H](CCCCCCCCCCC)OC(=O)CCCCC)OC(=O)CCCCC.CCN(CC)CC [RC-567] | – | 100% | – | little if any cytokine stimulation | –
17 | CCCCCCCCCCC[C@H](CC(=O)N[C@H]1[C@H](OC[C@H](NC(=O)C[C@@H](CCCCCCCCCCC)OC(=O)CCCCC)C(=O)O)O[C@H](CO)[C@@H](OP(=O)(O)O)[C@@H]1OC(=O)C[C@@H](CCCCCCCCCCC)OC(=O)CCCCC)OC(=O)CCCCCCCCC.CCN(CC)CC [RC-568] | – | 96% | – | little if any cytokine stimulation | –
18 | CCCCCCCCCCC[C@H](CC(=O)N[C@H]1[C@H](OC[C@H](NC(=O)C[C@@H](CCCCCCCCCCC)OC(=O)CCCCC)C(=O)O)O[C@H](CO)[C@@H](OP(=O)(O)O)[C@@H]1OC(=O)C[C@@H](CCCCCCCCCCC)OC(=O)CCCCCCCCC)OC(=O)CCCCC.CCN(CC)CC [RC-570] | – | 100% | – | little if any cytokine stimulation | –
19 | CCCCCCCCCCCCCC(=O)O[C@H](CCCCCCCCCCC)CC(=O)NCCCCCCO[C@@H]1O[C@H](CO)[C@@H](OP(=O)(O)O)[C@H](OC(=O)C[C@@H](CCCCCCCCCCC)OC(=O)CCCCCCCCCCCCC)[C@H]1NC(=O)C[C@@H](CCCCCCCCCCC)OC(=O)CCCCCCCCCCCCC.CCN(CC)CC [RC-571] | – | – | – | – | IL10/TNFα cba (human whole blood; donor 1, ratio of IL-10 to TNF): 8.6; TNFα/IL10 cba (human whole blood; donor 1, ratio of TNF to IL-10): 0.5
20 | CCCCCCCCCCC[C@H](CC(=O)N[C@@H](CCC(=O)O)CO[C@@H]1O[C@H](CO)[C@@H](OP(=O)(O)O)[C@H](OC(=O)C[C@@H](CCCCCCCCCCC)OC(=O)CCCCCCCCC)[C@H]1NC(=O)C[C@@H](CCCCCCCCCCC)OC(=O)CCCCCCCCC)OC(=O)CCCCCCCCC.CCN(CC)CC [RC-573] | – | – | protection that was equal to or greater than that provided by MPL | – | –
